What was measured:
[1] = system: Staphylococcus aureus, MRSA (ATCC 33591); test: Antibacterial MIC assay (microbroth dilution, CLSI); format: cell-based; conditions: 35° C., 16-20 hours
Excerpt: (§1) All MIC testing of bacteria followed the Clinical and Laboratory Standards Institute (CLSI) guidelines for antimicrobial testing of aerobic bacteria (Methods for Dilution Antimicrobial Susceptibility Tests for Bacteria that Grow Aerobically; Approved Standard—Tenth Edition, M07-A10; Performance Standards for Antimicrobial Susceptibility Testing; Twenty-fifth Informational Supplement, M100-S25).
(§2) Briefly, the microbroth dilution MIC method was used to quantitatively measure the in vitro antibacterial activity of a compound against a given bacterial isolate. The following bacterial strains were evaluated: Staphylococcus aureus, MRSA (ATCC 33591) and Streptococcus pneumoniae (ATCC 49619). Bacteria were grown in cation-adjusted Mueller-Hinton broth, with additions as required per species growth requirements (e.g. 3% lysed horse blood for fastidious organisms such as S. pneumoniae). A direct colony suspension in saline was prepared from colonies on an overnight agar plate to achieve a turbidity equivalent to 0.5 McFarland standard, which was subsequently diluted into the assay plate to achieve 5×10^5 CFU/mL. Assays plates were prepared by 2-fold dilution of compound across the plate and included a positive growth control.

[2] = system: Streptococcus pneumoniae (ATCC 49619); test: as above; format: cell-based; conditions: 3% lysed horse blood, 35° C., 16-20 hours
Excerpt: as §1, §2

Compound	MIC Staphylococcus aureus, MRSA (ATCC 33591) [1]	MIC Streptococcus pneumoniae (ATCC 49619) [2]
C[C@@H]1CC[C@@]23CCC(=O)[C@H]2[C@]1(C)[C@H](OC(=O)COc1ccc2c(c1F)B(O)OC2)C[C@@](C)(CCC(=O)N1CCC(O)C1)[C@@H](O)[C@@H]3C (stereo partly drawn) [Compound 7, (3aR,4R,5R,7R,8S,9R,9aS,12R)-8-hydroxy-7-(3-(3-hydroxypyrrolidin-1-yl)-3-oxopropyl)-4,7,9,12-tetramethyl-3-oxodecahydro-4,9a-propanocyclopenta[8]annulen-5-yl2-((7-fluoro-1-hydroxy-1,3-dihydrobenzo[c][1,2]oxaborol-6-yl)oxy)acetate]	C (4-32 is C)	B (0.5-2 is B)
C[C@@H]1CC[C@@]23CCC(=O)[C@H]2[C@]1(C)[C@H](OC(=O)COc1ccc2c(c1F)B(O)OC2)C[C@@](C)(CCC(=O)N1CC[C@H](O)C1)[C@@H](O)[C@@H]3C [Compound 8, (3aR,4R,5R,7R,8S,9R,9aS,12R)-8-hydroxy-7-(3-((S)-3-hydroxypyrrolidin-1-yl)-3-oxopropyl)-4,7,9,12-tetramethyl-3-oxodecahydro-4,9a-propanocyclopenta[8]annulen-5-yl2-((7-fluoro-1-hydroxy-1,3-dihydrobenzo[c][1,2]oxaborol-6-yl)oxy)acetate]	C (4-32 is C)	B (0.5-2 is B)
C[C@@H]1CC[C@@]23CCC(=O)[C@H]2[C@]1(C)[C@H](OC(=O)COc1ccc2c(c1F)B(O)OC2)C[C@@]1(C)CC(O)O[C@H]1[C@@H]3C (stereo partly drawn) [Compound 9, (3aS,5R,6R,6aR,9aS,10R,10aS,13R)-2-hydroxy-3a,6,10,13-tetramethyl-7-oxododecahydro-6,9a-propanocyclopenta[6,7]cycloocta[1,2-b]furan-5-yl2-((7-fluoro-1-hydroxy-1,3-dihydrobenzo[c][1,2]oxaborol-6-yl)oxy)acetate]	C (4-32 is C)	C (4-32 is C)
C[C@@H]1CC[C@@]23CCC(=O)[C@H]2[C@]1(C)[C@H](OC(=O)COc1ccc2c(c1F)B(O)OC2)C[C@@](C)(Cc1ccccc1)[C@@H](O)[C@@H]3C [Compound 10, (3aR,4R,5R,7R,8S,9R,9aS,12R)-7-benzyl-8-hydroxy-4,7,9,12-tetramethyl-3-oxodecahydro-4,9a-propanocyclopenta[8]annulen-5-yl2-((7-fluoro-1-hydroxy-1,3-dihydrobenzo[c][1,2]oxaborol-6-yl)oxy)acetate]	A (MIC of ≤0.25 is A)	B (0.5-2 is B)
C[C@@H]1CC[C@@]23CCC(=O)[C@H]2[C@]1(C)[C@H](OC(=O)COc1ccc2c(c1F)B(O)OC2)C[C@@](C)(CCl)[C@@H](O)[C@@H]3C [Compound 11, (3aR,4R,5R,7R,8S,9R,9aS,12R)-7-(chloromethyl)-8-hydroxy-4,7,9,12-tetramethyl-3-oxodecahydro-4,9a-propanocyclopenta[8]annulen-5-yl2-((7-fluoro-1-hydroxy-1,3-dihydrobenzo[c][1,2]oxaborol-6-yl)oxy)acetate]	A (MIC of ≤0.25 is A)	B (0.5-2 is B)
C[C@@H]1CC[C@@]23CCC(=O)[C@H]2[C@]1(C)[C@H](OC(=O)COc1ccc2c(c1F)B(O)OC2)C[C@@](C)(/C=C/C(N)=O)[C@@H](O)[C@@H]3C [Compound 14, (3aR,4R,5R,7S,8S,9R,9aS,12R)-7-((E)-3-amino-3-oxoprop-1-en-1-yl)-8-hydroxy-4,7,9,12-tetramethyl-3-oxodecahydro-4,9a-propanocyclopenta[8]annulen-5-yl2-((7-fluoro-1-hydroxy-1,3-dihydrobenzo[c][1,2]oxaborol-6-yl)oxy)acetate]	B (0.5-2 is B)	B (0.5-2 is B)
